Data published in the supplement of paper PMC11061612.

How the values were obtained:
Test in all cases: combination Emax (second highest fraction inhibited in the dose matrix, 72 h); higher = more inhibition; extreme values may be limits of the assay
U251 (Low Grade Glioma) = test system: U251 (Low Grade Glioma)
In short: (§1)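 After 24 hours at 37°C and 5% CO2 in 1536-well plates, cells in DMEM/F12 or RPMI plus 10% FBS received two-drug dose matrices for 72 hours. Viability came from CellTiter-Glo 2.0 luminescence and was scaled as inhibition, anchored at 0 by vehicle wells and at 1 by blank wells. Combination Emax is taken as the second-highest inhibition in the matrix, and Bliss excess as the observed combination effect less EA + EB − EA·EB, with EA and EB the single-agent effects.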

[1] = test system: MS751 (Cervical Carcinoma)
In short: as §1

[2] = test system: CAMA-1 (Breast Carcinoma)
In short: as §1

[3] = test system: KARPAS-45 (T-Lymphoblastic Leukemia)
In short: as §1

[4] = test system: PANC-08-13 (Pancreatic Carcinoma)
In short: as §1

MEL-JUSO (Melanoma) = test system: MEL-JUSO (Melanoma)
In short: as §1

[5] = test system: SW837 (Colorectal Carcinoma)
In short: as §1

[6] = test system: MKN28 (Gastric Carcinoma)
In short: as §1

[7] = test system: SU-DHL-8 (B-Cell Non-Hodgkin's Lymphoma)
In short: as §1

[8] = test system: K-562 (Chronic Myelogenous Leukemia)
In short: as §1

[9] = test system: BFTC-905 (Bladder Carcinoma)
In short: as §1

WIL2-NS (Non-Cancerous) = test system: WIL2-NS (Non-Cancerous)
In short: as §1

CHP-212 (Neuroblastoma) = test system: CHP-212 (Neuroblastoma)
In short: as §1

[10] = test system: TE-6 (Esophageal Squamous Cell Carcinoma)
In short: as §1

[11] = test system: TOV-112D (Ovarian Carcinoma)
In short: as §1

[12] = test system: KYSE-180 (Esophageal Squamous Cell Carcinoma)
In short: as §1

[13] = test system: EVSA-T (Breast Carcinoma)
In short: as §1

[14] = test system: SW1417 (Colorectal Carcinoma)
In short: as §1

[15] = test system: L-540 (Hodgkin's Lymphoma)
In short: as §1

[16] = test system: HL-60 (Acute Myeloid Leukemia)
In short: as §1

For C[C@@H](c1ccc2nccn2c1)n1nnc2ncc(-c3cnn(C)c3)nc21 [Savolitinib] + CC1(C)CCC(CN2CCN(c3ccc(C(=O)NS(=O)(=O)c4ccc(NCC5CCOCC5)c([N+](=O)[O-])c4)c(Oc4cnc5[nH]ccc5c4)c3)CC2)=C(c2ccc(Cl)cc2)C1 [Venetoclax] (first compound max 1 µM, 7x7, partner max 1 µM), the “combination Emax” value (U251 (Low Grade Glioma)) was 0.116, the “combination Emax” value [1] was 0.176 and the “combination Emax” value [2] was 0.17. The “combination Emax” value [3] was 0.322, the “combination Emax” value [4] was 0.109 and the “combination Emax” value (MEL-JUSO (Melanoma)) was 0.126. The “combination Emax” value [5] was 0.14, the “combination Emax” value [6] was 0.0564 and the “combination Emax” value [7] was 0.288. The “combination Emax” value [8] was 0.155, the “combination Emax” value [9] was 0.164 and the “combination Emax” value (WIL2-NS (Non-Cancerous)) was 0.163. The “combination Emax” value (CHP-212 (Neuroblastoma)) was 0.108, the “combination Emax” value [10] was 0.124 and the “combination Emax” value [11] was 0.0298. For the same compound, the “combination Emax” value [12] was 0.134, the “combination Emax” value [13] was 0.201 and the “combination Emax” value [14] was 0.126. For the same compound, the “combination Emax” value [15] was 0.246 and the “combination Emax” value [16] was 0.658.
For C[C@@H](c1ccc2nccn2c1)n1nnc2ncc(-c3cnn(C)c3)nc21 [Savolitinib] + Cc1c2c(nn1C)CSCc1cc(n(C)n1)CSc1cc(c3ccccc3c1)OCCCc1c(C(=O)O)n(C)c3c-2c(Cl)ccc13 [AZD5991] (first compound max 1 µM, 7x7, partner max 1 µM), the “combination Emax” value (U251 (Low Grade Glioma)) was 0.217, the “combination Emax” value [1] was 0.773 and the “combination Emax” value [2] was 0.494. The “combination Emax” value [3] was 0.882, the “combination Emax” value [4] was 0.146 and the “combination Emax” value (MEL-JUSO (Melanoma)) was 0.183. The “combination Emax” value [5] was 0.124, the “combination Emax” value [6] was 0.0861 and the “combination Emax” value [7] was 0.697. The “combination Emax” value [8] was 0.159, the “combination Emax” value [9] was 0.191 and the “combination Emax” value (WIL2-NS (Non-Cancerous)) was 0.0914. For the same compound, the “combination Emax” value (CHP-212 (Neuroblastoma)) was 0.787, the “combination Emax” value [10] was 0.308 and the “combination Emax” value [11] was 0.395. The “combination Emax” value [12] was 0.278, the “combination Emax” value [13] was 1 and the “combination Emax” value [14] was 0.161. For the same compound, the “combination Emax” value [15] was 0.975 and the “combination Emax” value [16] was 1.
In the case of Cn1cnc2c(F)c(Nc3ccc(Br)cc3Cl)c(C(=O)NOCCO)cc21 [Selumetinib] + C=CCn1c(=O)c2cnc(Nc3ccc(N4CCN(C)CC4)cc3)nc2n1-c1cccc(C(C)(C)O)n1 [AZD1775] (first compound max 10 µM, partner max 1 µM), the “combination Emax” value (U251 (Low Grade Glioma)) is reported as 0.326, the “combination Emax” value [1] is reported as 0.575 and the “combination Emax” value [2] is reported as 0.148. The “combination Emax” value [3] was 0.909, the “combination Emax” value [4] was 0.305 and the “combination Emax” value (MEL-JUSO (Melanoma)) was 0.604. The “combination Emax” value [5] was 0.549, the “combination Emax” value [6] was 0.276 and the “combination Emax” value [7] was 1. For the same compound, the “combination Emax” value [8] was 0.834, the “combination Emax” value [9] was 0.665 and the “combination Emax” value (WIL2-NS (Non-Cancerous)) was 0.937. For the same compound, the “combination Emax” value (CHP-212 (Neuroblastoma)) was 0.978, the “combination Emax” value [10] was 0.506 and the “combination Emax” value [11] was 0.48. For the same compound, the “combination Emax” value [12] was 0.544, the “combination Emax” value [13] was 0.156 and the “combination Emax” value [14] was 0.704. The “combination Emax” value [15] was 0.905 and the “combination Emax” value [16] was 0.712.
In the case of Cn1cnc2c(F)c(Nc3ccc(Br)cc3Cl)c(C(=O)NOCCO)cc21 [Selumetinib] + CC(C)n1c(=O)n(C)c2cnc3cc(F)c(-c4ccc(OCCCN5CCCCC5)nc4)cc3c21 [AZD1390] (first compound max 10 µM, 7x7, partner max 0.3 µM), the “combination Emax” value (U251 (Low Grade Glioma)) is reported as 0.141, the “combination Emax” value [1] is reported as 0.144 and the “combination Emax” value [2] is reported as 0.0892. The “combination Emax” value [3] was 0.0319, the “combination Emax” value [4] was 0.111 and the “combination Emax” value (MEL-JUSO (Melanoma)) was 0.349. For the same compound, the “combination Emax” value [5] was 0.567, the “combination Emax” value [6] was 0.137 and the “combination Emax” value [7] was 0.0761. The “combination Emax” value [8] was 0.168, the “combination Emax” value [9] was 0.606 and the “combination Emax” value (WIL2-NS (Non-Cancerous)) was 0.252. The “combination Emax” value (CHP-212 (Neuroblastoma)) was 0.923, the “combination Emax” value [10] was 0.388 and the “combination Emax” value [11] was 0.138. For the same compound, the “combination Emax” value [12] was 0.0295, the “combination Emax” value [13] was 0.174 and the “combination Emax” value [14] was 0.437. For the same compound, the “combination Emax” value [15] was 0.0301 and the “combination Emax” value [16] was 0.743.
For Cn1cnc2c(F)c(Nc3ccc(Br)cc3Cl)c(C(=O)NOCCO)cc21 [Selumetinib] + CCN(CCO)CCCOc1ccc2c(Nc3cc(CC(=O)Nc4cccc(F)c4)[nH]n3)ncnc2c1 [AZD2811] (first compound max 10 µM, 7x7, partner max 1 µM), the “combination Emax” value (U251 (Low Grade Glioma)) was 0.268, the “combination Emax” value [1] was 0.639 and the “combination Emax” value [2] was 0.22. For the same compound, the “combination Emax” value [3] was 0.926, the “combination Emax” value [4] was 0.22 and the “combination Emax” value (MEL-JUSO (Melanoma)) was 0.427. The “combination Emax” value [5] was 0.554, the “combination Emax” value [6] was 0.191 and the “combination Emax” value [7] was 0.354. For the same compound, the “combination Emax” value [8] was 0.32, the “combination Emax” value [9] was 0.781 and the “combination Emax” value (WIL2-NS (Non-Cancerous)) was 0.259. For the same compound, the “combination Emax” value (CHP-212 (Neuroblastoma)) was 0.972, the “combination Emax” value [10] was 0.353 and the “combination Emax” value [11] was 0.349. For the same compound, the “combination Emax” value [12] was 0.103, the “combination Emax” value [13] was 0.283 and the “combination Emax” value [14] was 0.559. For the same compound, the “combination Emax” value [15] was 0.194 and the “combination Emax” value [16] was 0.918.
For Cn1cnc2c(F)c(Nc3ccc(Br)cc3Cl)c(C(=O)NOCCO)cc21 [Selumetinib] + C[C@@H]1COCCN1C2=NC(=NC(=C2)C3(CC3)[S@](=N)(=O)C)C4=C5C=CNC5=NC=C4 [AZD6738] (first compound max 10 µM, 7x7, partner max 10 µM), the “combination Emax” value (U251 (Low Grade Glioma)) was 0.443, the “combination Emax” value [1] was 0.476 and the “combination Emax” value [2] was 0.319. The “combination Emax” value [3] was 0.868, the “combination Emax” value [4] was 0.239 and the “combination Emax” value (MEL-JUSO (Melanoma)) was 0.509. The “combination Emax” value [5] was 0.544, the “combination Emax” value [6] was 0.202 and the “combination Emax” value [7] was 0.936. The “combination Emax” value [8] was 0.866, the “combination Emax” value [9] was 0.784 and the “combination Emax” value (WIL2-NS (Non-Cancerous)) was 0.922. For the same compound, the “combination Emax” value (CHP-212 (Neuroblastoma)) was 0.989, the “combination Emax” value [10] was 0.671 and the “combination Emax” value [11] was 0.657. For the same compound, the “combination Emax” value [12] was 0.393, the “combination Emax” value [13] was 0.222 and the “combination Emax” value [14] was 0.583. For the same compound, the “combination Emax” value [15] was 0.889 and the “combination Emax” value [16] was 0.819.
With CC(=O)Nc1cccc(-n2c(=O)n(C3CC3)c(=O)c3c(Nc4ccc(I)cc4F)n(C)c(=O)c(C)c32)c1 [Trametinib] + Cc1nc(-c2cn3c(n2)-c2ccc(-c4cnn(C(C)(C)C(N)=O)c4)cc2OCC3)n(C(C)C)n1 [Taselisib] (first compound max 1 µM, 7x7, partner max 10 µM) the “combination Emax” value (U251 (Low Grade Glioma)) was 0.848, the “combination Emax” value [1] was 0.438 and the “combination Emax” value [2] was 0.491. The “combination Emax” value [3] was 0.755, the “combination Emax” value [4] was 0.655 and the “combination Emax” value (MEL-JUSO (Melanoma)) was 0.863. For the same compound, the “combination Emax” value [5] was 0.738, the “combination Emax” value [6] was 0.708 and the “combination Emax” value [7] was 0. For the same compound, the “combination Emax” value [8] was 0.495, the “combination Emax” value [9] was 1 and the “combination Emax” value (WIL2-NS (Non-Cancerous)) was 0.723. For the same compound, the “combination Emax” value (CHP-212 (Neuroblastoma)) was 1, the “combination Emax” value [10] was 0.908 and the “combination Emax” value [11] was 0.641. For the same compound, the “combination Emax” value [12] was 0.638, the “combination Emax” value [13] was 0.947 and the “combination Emax” value [14] was 0.775. The “combination Emax” value [15] was 0.36 and the “combination Emax” value [16] was 0.958.
